Measured values from patent US20230293539A1, “MLL1-WDR5 PROTEIN-PROTEIN INTERACTION INHIBITOR COMPOUNDS AND USES THEREOF” (HUYABIO International, LLC, priority 2022, published 2023).
Like-named read-outs stand apart in the source and are kept apart here.

Assay: PK profile of HBI-2375 in plasma and brain in C57BL/6J mice
Format: in vivo
Conditions: for AUClast / AUC(0-t) / Tmax at 7 day / Cmax at 7 day / Tmax / Cmax / MRT last: C57BL/6J mice; for concentration at 24 h / Kp / AUC(0-t): C57BL/6J; for concentration at 24 h / Kp / AUC(0-t) / Tmax at 7 day / Cmax at 7 day / Tmax / Cmax / MRT last: mouse; for concentration at 24 h: read-out: Mean Brain Concentration, Cmin = 24 h; for AUClast Ratio, group 2 vs 1 / Cmax Ratio, group 2 vs 1: 80 vs 40 mg/kg PO; for AUClast ratios females/males / Cmax ratios females/males: all three dose groups; for AUClast Ratio, group 3 vs 2 / Cmax Ratio, group 3 vs 2: repeat PO vs PO 80 mg/kg
Description: EXAMPLE 4: PK profile of compound of Formula (IIIb) (HBI-2375, HYBI-84) in plasma and brain in C57BL/6J mice: This study was conducted in accordance with the Study Protocol and Pharmaron (Ningbo) TSP's Standard Operating Procedures (SOPs) following all regulatory protocols. This study was conducted under non-GLP environment.
Following single oral gavage administration of HBI-2375 at 40 mg/kg, 80 mg/kg, and 7-day repeat oral gavage administration at 80 mg/kg in C57BL/6J mice, concentrations of HBI-2375 in plasma and brain were determined by LC-MS/MS methods. […] The maximal concentrations of HBI-2375 in brain were all observed at 4 hr post-dose. […] The exposure of HBI-2375 in plasma and brain of females were closed to that of males, the ratios were 0.989-1.22 for plasma, and 1.10-1.34 for brain.

[1] = 7-day repeat PO 80 mg/kg, brain, female
[2] = 7-day repeat PO 80 mg/kg, brain, male
[3] = single PO 40 mg/kg, brain, female
[4] = single PO 40 mg/kg, brain, male
[5] = single PO 80 mg/kg, brain, female
[6] = single PO 80 mg/kg, brain, male
[7] = both sexes, single PO 40 mg/kg, brain, mean
[8] = both sexes, single PO 40 mg/kg, plasma, mean
[9] = both sexes, single PO 80 mg/kg, brain, mean
[10] = both sexes, single PO 80 mg/kg, plasma, mean
[11] = mice, 7-day consecutive dosing 80 mg/kg
[12] = mice, all dose groups, listed as HBI-2375
[13] = mice, repeat PO 80 mg/kg, brain
[14] = mice, repeat PO 80 mg/kg, plasma
[15] = mice, single PO 40 mg/kg, brain
[16] = mice, single PO 40 mg/kg, plasma
[17] = mice, single PO 80 mg/kg, brain
[18] = mice, single PO 80 mg/kg, plasma
[19] = 7-day repeat PO 80 mg/kg, plasma, female
[20] = 7-day repeat PO 80 mg/kg, plasma, male
[21] = single PO 40 mg/kg, plasma, female
[22] = single PO 40 mg/kg, plasma, male
[23] = single PO 80 mg/kg, plasma, female
[24] = single PO 80 mg/kg, plasma, male

Cc1c(F)c(N)cc(C(=O)Nc2cc(-n3cc(C(=O)N4CCN(C)CC4)nn3)c(F)cc2N2C[C@@H](C)N(C)[C@@H](C)C2)c1Cl [HYBI-084, 5-amino-2-chloro-4-fluoro-N-(4-fluoro-5-(4-(4-methylpiperazine-1-carbonyl)-1H-1,2,3-triazol-1-yl)-2-((3S,5R)-3,4,5-trimethylpiperazin-1-yl)phenyl)-3-methylbenzamide]
AUClast [1]: 11446 ng·h/g
AUClast [2]: 8555 ng·h/g
AUClast (7-day repeat PO 80 mg/kg, brain, mean): 10001 ng·h/g
AUClast [3]: 2179 ng·h/g
AUClast [4]: 1879 ng·h/g
AUClast (single PO 40 mg/kg, brain, mean): 2029 ng·h/g
AUClast [5]: 6129 ng·h/g
AUClast [6]: 5559 ng·h/g
AUClast (single PO 80 mg/kg, brain, mean): 5844 ng·h/g
concentration at 24 h (brain, po, 80 mg/kg, Repeat PO Mouse at 80 mg/kg): 136 ng/g
concentration at 24 h (brain, po, 80 mg/kg, Single PO Mouse at 80 mg/kg): 55 ng/g
Kp (both sexes, brain, oral, 40 mg/kg, mice, single dosing 40 mg/kg, read-out: AUC exposure in brain as % of that in plasma): 0.283 to 0.332
Kp (both sexes, brain, oral, 80 mg/kg, mice, single dosing 80 mg/kg, read-out: AUC exposure in brain as % of that in plasma): 0.361 to 0.388
Kp (both sexes, brain, oral, mice, all dose groups, read-out: brain exposure as % of AUC in plasma): 0.283 to 0.588
AUC(0-t) (both sexes, plasma, po, 40 mg/kg, single PO 40 mg/kg, mean): 6600 ng·h/mL
AUC(0-t) (both sexes, plasma, po, 80 mg/kg, 7-day repeat PO 80 mg/kg, mean): 17700 ng·h/mL
AUC(0-t) (both sexes, plasma, po, 80 mg/kg, single PO 80 mg/kg, mean): 15600 ng·h/mL
Tmax at 7 day (both sexes, 7-day repeat PO 80 mg/kg, brain): 4 h
Cmax at 7 day (both sexes, 7-day repeat PO 80 mg/kg, brain, mean): 807 ng/g
Tmax at 7 day (both sexes, 7-day repeat PO 80 mg/kg, plasma): 1 h
Cmax at 7 day (both sexes, 7-day repeat PO 80 mg/kg, plasma, mean): 2530 ng/mL
Tmax (both sexes, single PO 40 mg/kg, brain): 4 h
Cmax [7]: 180 ng/g
MRT last [7]: 8.15 h
Tmax (both sexes, single PO 40 mg/kg, plasma): 0.5 h
Cmax [8]: 1140 ng/mL
MRT last [8]: 5.26 h
Tmax (both sexes, single PO 80 mg/kg, brain): 4 h
Cmax [9]: 528 ng/g
MRT last [9]: 8.21 h
Tmax (both sexes, single PO 80 mg/kg, plasma): 0.5 h
Cmax [10]: 3970 ng/mL
MRT last [10]: 5.16 h
Kp (female, brain, po, 40 mg/kg, mice, single PO 40 mg/kg, female, read-out: AUClast Ratio Brain/Plasma): 0.332
Kp (female, brain, po, 80 mg/kg, mice, repeat PO 80 mg/kg, female, read-out: AUClast Ratio Brain/Plasma): 0.588
Kp (female, brain, po, 80 mg/kg, mice, single PO 80 mg/kg, female, read-out: AUClast Ratio Brain/Plasma): 0.388
AUC(0-t) (female, plasma, po, 40 mg/kg, single PO 40 mg/kg): 6560 ng·h/mL
AUC(0-t) (female, plasma, po, 80 mg/kg, 7-day repeat PO 80 mg/kg): 19500 ng·h/mL
AUC(0-t) (female, plasma, po, 80 mg/kg, single PO 80 mg/kg): 15800 ng·h/mL
Kp (male, brain, po, 40 mg/kg, mice, single PO 40 mg/kg, male, read-out: AUClast Ratio Brain/Plasma): 0.283
Kp (male, brain, po, 80 mg/kg, mice, repeat PO 80 mg/kg, male, read-out: AUClast Ratio Brain/Plasma): 0.536
Kp (male, brain, po, 80 mg/kg, mice, single PO 80 mg/kg, male, read-out: AUClast Ratio Brain/Plasma): 0.361
AUC(0-t) (male, plasma, po, 40 mg/kg, single PO 40 mg/kg): 6640 ng·h/mL
AUC(0-t) (male, plasma, po, 80 mg/kg, 7-day repeat PO 80 mg/kg): 16000 ng·h/mL
AUC(0-t) (male, plasma, po, 80 mg/kg, single PO 80 mg/kg): 15400 ng·h/mL
drug accumulation in brain [11]: no obvious drug accumulation
drug accumulation in plasma [11]: no obvious drug accumulation
mean concentration at 24 hr post-dose as % of Cmax (mice, 7-day repeat PO 80 mg/kg, brain, both sexes): 14.4-18.9%
mean concentration at 24 hr post-dose as % of Cmax (mice, 7-day repeat PO 80 mg/kg, plasma, both sexes): 2.68-3.94%
AUClast Ratio, group 2 vs 1 (mice, brain, female): 2.81
Cmax Ratio, group 2 vs 1 (mice, brain, female): 2.89
AUClast Ratio, group 2 vs 1 (mice, brain, male): 2.96
Cmax Ratio, group 2 vs 1 (mice, brain, male): 3.00
AUClast Ratio, group 2 vs 1 (mice, plasma, female): 2.41
Cmax Ratio, group 2 vs 1 (mice, plasma, female): 3.47
AUClast Ratio, group 2 vs 1 (mice, plasma, male): 2.32
Cmax Ratio, group 2 vs 1 (mice, plasma, male): 3.50
distribution (mice, all dose groups): distributed to brain
duration of brain exposure (mice, all dose groups): 24 h
gender-related differences in exposure in brain [12]: No gender-related differences
gender-related differences in exposure in plasma [12]: No gender-related differences
AUClast ratios females/males (mice, brain): 1.10-1.34
Cmax ratios females/males (mice, brain): 1.11-1.24
AUClast ratios 7-day repeat vs single-dose 80 mg/kg (mice, brain, both sexes): 1.54-1.87
AUClast ratios 80 vs 40 mg/kg single dose (mice, brain, both sexes): 2.81-2.96
Cmax ratios 7-day repeat vs single-dose 80 mg/kg (mice, brain, both sexes): 1.44-1.60
AUClast ratios females/males (mice, plasma): 0.989-1.22
Cmax ratios females/males (mice, plasma): 0.967-1.27
AUClast ratios 7-day repeat vs single-dose 80 mg/kg (mice, plasma, both sexes): 1.04-1.23
AUClast ratios 80 vs 40 mg/kg single dose (mice, plasma, both sexes): 2.32-2.41
AUClast Ratio Female/Male [13]: 1.34
Cmax Ratio Female/Male [13]: 1.24
C24hr/Cmax Ratio (%) (mice, repeat PO 80 mg/kg, brain, female): 18.9%
C24hr/Cmax Ratio (%) (mice, repeat PO 80 mg/kg, brain, male): 14.4%
AUClast Ratio Female/Male [14]: 1.22
Cmax Ratio Female/Male [14]: 1.27
C24hr/Cmax Ratio (%) (mice, repeat PO 80 mg/kg, plasma, female): 3.94%
C24hr/Cmax Ratio (%) (mice, repeat PO 80 mg/kg, plasma, male): 2.68%
AUClast Ratio, group 3 vs 2 (mice, brain, female): 1.87
Cmax Ratio, group 3 vs 2 (mice, brain, female): 1.60
AUClast Ratio, group 3 vs 2 (mice, brain, male): 1.54
Cmax Ratio, group 3 vs 2 (mice, brain, male): 1.44
AUClast Ratio, group 3 vs 2 (mice, plasma, female): 1.23
Cmax Ratio, group 3 vs 2 (mice, plasma, female): 0.726
AUClast Ratio, group 3 vs 2 (mice, plasma, male): 1.04
Cmax Ratio, group 3 vs 2 (mice, plasma, male): 0.552
AUClast Ratio Female/Male [15]: 1.16
Cmax Ratio Female/Male [15]: 1.15
mean concentration at 24 hr post-dose as % of Cmax (mice, single PO 40 mg/kg, brain, both sexes): 10.4-11.1%
C24hr/Cmax Ratio (%) (mice, single PO 40 mg/kg, brain, female): 11.1%
C24hr/Cmax Ratio (%) (mice, single PO 40 mg/kg, brain, male): 10.4%
AUClast Ratio Female/Male [16]: 0.989
Cmax Ratio Female/Male [16]: 0.976
mean concentration at 24 hr post-dose as % of Cmax (mice, single PO 40 mg/kg, plasma, both sexes): 0.748-1.10%
C24hr/Cmax Ratio (%) (mice, single PO 40 mg/kg, plasma, female): 1.10%
C24hr/Cmax Ratio (%) (mice, single PO 40 mg/kg, plasma, male): 0.748%
AUClast Ratio Female/Male [17]: 1.10
Cmax Ratio Female/Male [17]: 1.11
mean concentration at 24 hr post-dose as % of Cmax (mice, single PO 80 mg/kg, brain, both sexes): 9.71-11.2%
C24hr/Cmax Ratio (%) (mice, single PO 80 mg/kg, brain, female): 9.71%
C24hr/Cmax Ratio (%) (mice, single PO 80 mg/kg, brain, male): 11.2%
AUClast Ratio Female/Male [18]: 1.03
Cmax Ratio Female/Male [18]: 0.967
mean concentration at 24 hr post-dose as % of Cmax (mice, single PO 80 mg/kg, plasma, both sexes): 0.671-0.757%
C24hr/Cmax Ratio (%) (mice, single PO 80 mg/kg, plasma, female): 0.671%
C24hr/Cmax Ratio (%) (mice, single PO 80 mg/kg, plasma, male): 0.757%
in-life observations (mice, single PO 40, 80 mg/kg and 7-day repeat PO 80 mg/kg): no abnormalities were observed
dose proportionality of AUClast and Cmax in plasma and brain (mice, single PO 40 and 80 mg/kg): proportional increase of exposure
Cmax at 7 day [1]: 892 ng/g
Tmax at 7 day [1]: 4 h
Cmax at 7 day [2]: 722 ng/g
Tmax at 7 day [2]: 4 h
Cmax at 7 day [19]: 2840 ng/mL
Tmax at 7 day [19]: 1 h
Cmax at 7 day [20]: 2230 ng/mL
Tmax at 7 day [20]: 1 h
Cmax [3]: 192 ng/g
MRT last [3]: 8.25 h
Tmax [3]: 4 h
Cmax [4]: 167 ng/g
MRT last [4]: 8.05 h
Tmax [4]: 4 h
Cmax [21]: 1120 ng/mL
MRT last [21]: 5.3 h
Tmax [21]: 0.5 h
Cmax [22]: 1150 ng/mL
MRT last [22]: 5.22 h
Tmax [22]: 0.5 h
Cmax [5]: 556 ng/g
MRT last [5]: 8.01 h
Tmax [5]: 4 h
Cmax [6]: 500 ng/g
MRT last [6]: 8.4 h
Tmax [6]: 4 h
Cmax [23]: 3910 ng/mL
MRT last [23]: 4.86 h
Tmax [23]: 0.5 h
Cmax [24]: 4040 ng/mL
MRT last [24]: 5.46 h
Tmax [24]: 0.5 h
